In one test the target is T1, AMPK α2/α1 CAT β1γ1 (Homo sapiens, UniProt P54619+P54646, A116S/A126G/A242I/C200S/E112D/E217D/E235Q/E34K/F89I/G228D/H108N/I233T/I32V/K62R/L254M/M114K/M246K/Q36E/R227C/R239P/T243S/T87S/V111L/V17I/V230I).
T1 construct: 6×His (N); made in house; host or cells: E. coli (tricistronic pET15-b construct)
Kind of test: Chimeric AMPK complex activation assay. Type of test: biochemical. The following applies: complex expressed in E. coli; read-out: EC50, allosteric activation. The text has this: (§1) Figure 3 Regulatory Elements within the α-Linker Determine the Isoform Specificity of C2 (A) Diagram illustrating the domain organization of the AMPKα subunit with a global pairwise alignment of a section of the α-linker of human AMPKα1 (Q13131) and AMPKα2 (P54646). Regulatory elements in the α-linker are highlighted, including the α-hook as originally defined by [Xiao et al. (2011)] (pink) and the reassigned sequence (also known as α-RIM2) shaded in orange. The secondary structure for α1 is derived from PDB ID 2Y94. The table summarizes the sequences of the α1/α2 chimeras produced to examine the role of various structural elements in the activation of α2β1γ1 complexes by C2. (B–E) Human AMPKα1/α2 chimeras (defined in A) were generated as complexes with β1γ1 in E. coli. Purified active complexes were assayed for the activation of phosphotransferase activity by AMP and C2, as described in Figure 1. Results (line graphs) are expressed as the fold increase in activity relative to reactions performed in the absence of compound and represent the mean ± SD of three independent experiments. Complexes were also assayed for protection against dephosphorylation and inactivation by PP2Cα, as described in Figures 2C and 2D. Results (bar charts) are expressed as the mean (percentage of control) ± SD of three independent experiments. Representative blots of pT172 and total AMPKα are shown below the bar charts. TEXT PRINTED IN THE PICTURE: (B) C2: AMPK211 - α2/α1 CAT: EC50: ND | (B) AMP: AMPK211 - α2/α1 CAT: EC50: 1.3 ± 0.2 μM | (C) C2: AMPK211 - α2/α1 REG: EC50: 0.009 ± 0.0006 μM | (C) AMP: AMPK211 - α2/α1 REG: EC50: 3.1 ± 0.3 μM | (D) C2: AMPK211 - α2/α1 HOOK: EC50: ND | (D) AMP: AMPK211 - α2/α1 HOOK: EC50: 1.4 ± 0.2 μM | (E) C2: AMPK211 + α2/α1 LOOP: EC50: 0.013 ± 0.001 μM | (E) AMP: AMPK211 + α2/α1 LOOP: EC50: 2.7 ± 0.3 μM […]
(§2) AMPK phosphotransferase activity was assayed in reactions (50 μl) containing 50 mM HEPES, pH 7.4, 10 mM MgCl2, 0.1 mM EGTA, 1 mM DTT, 0.01% BRIJ-35, 100 μM [γ-^32P]ATP (∼250 CPM⋅pmol^−1) and 200 μM AMARA (AMARAASAAALARRR). Reactions were started by the addition of AMPK (5 mU), incubated for 20 min at 30°C and quenched by spotting onto P81 and immersion in 75 mM H3PO4. Washed filters were dried and [^32P] incorporation determined by Cherenkov counting. AMPK activity in cell extracts was determined by immunoprecipitation with AMPKα1 or AMPKα2 antibodies from 50 μg material, as previously described ([Hunter et al., 2011]). […]

In another test the target is T2, AMPK α2/α1 HOOK β1γ1 (Homo sapiens, UniProt P54619+P54646, A386E/C382H/K379R/P383T).
T2 construct: 6×His (N); made in house; host or cells: E. coli (tricistronic pET15-b construct)
The experiment in a line: Chimeric AMPK complex activation assay. In kind it is biochemical. As to conditions: complex expressed in E. coli; read-out: EC50, allosteric activation.
Source text: as §1, §2

T2 sequence (P54646 whole entry K379R/C382H/P383T/A386E): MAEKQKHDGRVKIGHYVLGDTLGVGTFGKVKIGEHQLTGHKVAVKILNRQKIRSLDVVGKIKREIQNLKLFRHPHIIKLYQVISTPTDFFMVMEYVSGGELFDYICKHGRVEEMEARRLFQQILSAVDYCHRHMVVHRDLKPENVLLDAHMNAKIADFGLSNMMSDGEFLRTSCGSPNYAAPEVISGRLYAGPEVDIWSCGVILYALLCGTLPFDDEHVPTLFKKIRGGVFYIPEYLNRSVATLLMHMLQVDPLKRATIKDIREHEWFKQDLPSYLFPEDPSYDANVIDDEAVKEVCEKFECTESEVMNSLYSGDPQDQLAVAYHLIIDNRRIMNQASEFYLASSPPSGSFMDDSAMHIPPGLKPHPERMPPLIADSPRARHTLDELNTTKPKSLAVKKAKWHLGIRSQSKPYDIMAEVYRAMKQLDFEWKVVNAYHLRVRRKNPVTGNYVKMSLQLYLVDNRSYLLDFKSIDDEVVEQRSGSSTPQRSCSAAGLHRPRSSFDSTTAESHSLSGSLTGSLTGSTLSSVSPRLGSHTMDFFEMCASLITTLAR
T2 sequence (Q9Y478 whole entry partner): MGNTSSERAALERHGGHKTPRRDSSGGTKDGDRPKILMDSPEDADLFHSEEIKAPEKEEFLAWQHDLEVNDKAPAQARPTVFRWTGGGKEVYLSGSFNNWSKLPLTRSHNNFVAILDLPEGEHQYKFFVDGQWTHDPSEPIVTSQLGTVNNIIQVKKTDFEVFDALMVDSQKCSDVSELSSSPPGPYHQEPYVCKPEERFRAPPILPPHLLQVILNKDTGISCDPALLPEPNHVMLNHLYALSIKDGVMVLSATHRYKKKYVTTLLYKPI
T2 sequence (P54619 whole entry): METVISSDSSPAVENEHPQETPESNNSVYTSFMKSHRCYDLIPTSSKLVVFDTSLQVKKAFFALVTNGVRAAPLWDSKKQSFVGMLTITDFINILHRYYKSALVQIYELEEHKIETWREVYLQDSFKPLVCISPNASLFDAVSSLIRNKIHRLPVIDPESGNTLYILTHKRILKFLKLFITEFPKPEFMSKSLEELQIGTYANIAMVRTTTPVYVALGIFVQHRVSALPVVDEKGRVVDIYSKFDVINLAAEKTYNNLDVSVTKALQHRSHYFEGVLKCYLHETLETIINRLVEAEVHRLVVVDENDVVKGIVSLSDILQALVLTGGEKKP
T1 sequence (P54619 whole entry, stated change not applied): as the sequence (P54619 whole entry) above
T1 sequence (Q9Y478 whole entry, further chain): as the sequence (Q9Y478 whole entry partner) above
T1 sequence (P54646 other isoform, or with tags, fused parts or gaps with the stated changes): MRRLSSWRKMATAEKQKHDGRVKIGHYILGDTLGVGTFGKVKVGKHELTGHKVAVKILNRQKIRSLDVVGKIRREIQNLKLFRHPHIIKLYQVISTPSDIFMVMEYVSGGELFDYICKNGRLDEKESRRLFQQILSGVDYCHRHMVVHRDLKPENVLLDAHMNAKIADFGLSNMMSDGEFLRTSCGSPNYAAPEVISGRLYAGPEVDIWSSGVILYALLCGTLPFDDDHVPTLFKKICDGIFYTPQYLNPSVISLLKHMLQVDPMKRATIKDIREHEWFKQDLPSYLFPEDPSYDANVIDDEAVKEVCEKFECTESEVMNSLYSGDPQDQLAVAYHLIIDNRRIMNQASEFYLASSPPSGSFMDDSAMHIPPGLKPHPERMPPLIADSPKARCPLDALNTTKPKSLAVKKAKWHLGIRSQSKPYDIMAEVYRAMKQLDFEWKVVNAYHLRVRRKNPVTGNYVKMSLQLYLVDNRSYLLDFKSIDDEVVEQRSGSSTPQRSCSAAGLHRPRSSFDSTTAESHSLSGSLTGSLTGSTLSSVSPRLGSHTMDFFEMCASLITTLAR

For the compound `Nc1ncnc2c1ncn2[C@@H]1O[C@H](COP(=O)(O)O)[C@@H](O)[C@H]1O` [AMP, reference compound], the half-maximal effective concentration (EC50) on AMPK α2/α1 CAT β1γ1 is 1.3 ± 0.2 µM; at AMPK α2/α1 HOOK β1γ1, 1.4 ± 0.2 µM.

The term EC50 denotes the concentration needed to bring the measured effect to its halfway point.
